A short description of data set [1]: Stability in simulated gastric fluid (SGF). The data set is classed as in vitro ADME. The note with it: pig (pepsin), simulated gastric fluid (SGF) with porcine pepsin, pH=2, 37° C., 20 μM peptide, read-out: SGF t½ (converted).
Description: SGF was prepared by adding 20 mg NaCl, 32 mg porcine pepsin (MP Biochemicals, catalog 02102599), and 70 μl HCl to 10 ml water (final pH=2). Aliquots of SGF (0.5 ml each) were pre-warmed at 37° C. To start the reaction, 1 μl of peptide stock solution (10 mM in DMSO) was added to 0.5 ml SGF and thoroughly mixed such that the final peptide concentration was 20 μM. The reactions were incubated at 37° C. with gentle shaking. At each time point (0, 15, 30, 60 min) 50 μl aliquots were removed and added to 200 ul acetonitrile containing 0.1% formic acid to quench the reaction. Samples are stored at 4° C. until the end of the experiment and centrifuged at 10,000 rpm for 5 minutes. Aliquots of the supernatant were removed, diluted 1:1 into distilled water containing internal standard, and analyzed by LCMS/MS. Percent remaining at each timepoint was calculated based on the peak area response ratio of test to compound to internal standard. Time 0 was set to 100%, and all later timepoints were calculated relative to time 0. Half-lives were calculated by fitting to a first-order exponential decay equation using GraphPad.
Data set [2] is described as follows: in vitro. The note with it: both, SD, rat, plasma (EDTA).
Another data set concerns NK cells. The data set is described as follows: NK cell based assay (IL-23/IL-18-induced IFNγ, Quantikine ELISA). The note with it: human primary NK cells, IL-23 at EC50 to EC75 + IL-18 10 ng/mL, IFNγ after 20 to 24 hours. Put shortly: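 Human NK cells were negatively selected from healthy-donor peripheral blood and expanded for 7 days in FBS-supplemented RPMI 1640 with IL-2 (25 ng/mL). IFNγ in the supernatant was quantified by ELISA after 20 to 24 hours.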
Background: An ELISA detects its analyte on a solid surface through an enzyme-linked reagent.

Data set [3] can be described thus: in vitro. The note with it: human, 20% fecal homogenate (supernatant), anaerobic, pH 6.8.
Description: (§1) Fecal homogenate (20%) was prepared by adding 4 mL of growth medium (1 liter contains 2 g peptone water powder, 2 g yeast extract, 0.1 g NaCl, 0.04 g KH2PO4, 0.01 g CaCl2·6H2O, 0.01 g MgSO4·7H2O, 2 mL Tween 80, 0.5 g bile salts, 0.5 g L-cysteine HCl, 2 g NaHCO3, and 10 μL Vitamin K, pH adjusted to 6.8, and sterilized by filtration through a 0.22 μm filter) to every gram of feces (pooled freshly collected human or cynomolgus monkey feces). The suspension was vortexed to break up large clumps, and homogenized using a bead mill homogenizer. Centrifuged the homogenate at 2800×g for 15 min. The supernatant is taken out and used for incubations. DMSO stocks (10 mM) were first prepared for the test compounds. Incubations were performed in an anaerobic chamber conditioned at 37° C. Aliquots of the DMSO solutions were dosed into 1.0 mL aliquots of 20% fecal homogenate, which are pre-warmed to 37° C. The final test compound concentration was 20 μM. At each timepoint (0, 20 min, 1, 3, 6, or 24 hours), 100 μL aliquot of each incubation mixture is taken out and added to separate tubes containing 300 μL of 50% acetonitrile/50% methanol and an internal standard to terminate the reaction. Samples were taken out of the anaerobic chamber and stored at 4° C. until the end of the experiment. After the final timepoint is sampled, the tubes were mixed and then centrifuged at 3,000 rpm for 10 minutes. Aliquots of the supernatant were removed, diluted 1:1 into distilled water containing 0.1% formic acid, and analyzed by LC/MS/MS. Percent remaining at each timepoint was calculated based on the peak area response ratio of test to compound to internal standard. Time 0 was set to 100%, and all later timepoints were calculated relative to time 0. Half-lives were calculated by fitting to a first-order exponential decay equation using Graphpad or Excel.
Data set [4] is described as follows: in vitro. The data set is classed as in vitro ADME. Set-up: half-life: dose or concentration left out as unconfirmed. Particulars: pH 6.8, 37° C., § matrix is 100 fold dilution of standard SIF concentration.
For a further data set, the target named is T1, IL-23R (Homo sapiens, UniProt Q5VWK5).
T1 sequence (Q5VWK5 24-629): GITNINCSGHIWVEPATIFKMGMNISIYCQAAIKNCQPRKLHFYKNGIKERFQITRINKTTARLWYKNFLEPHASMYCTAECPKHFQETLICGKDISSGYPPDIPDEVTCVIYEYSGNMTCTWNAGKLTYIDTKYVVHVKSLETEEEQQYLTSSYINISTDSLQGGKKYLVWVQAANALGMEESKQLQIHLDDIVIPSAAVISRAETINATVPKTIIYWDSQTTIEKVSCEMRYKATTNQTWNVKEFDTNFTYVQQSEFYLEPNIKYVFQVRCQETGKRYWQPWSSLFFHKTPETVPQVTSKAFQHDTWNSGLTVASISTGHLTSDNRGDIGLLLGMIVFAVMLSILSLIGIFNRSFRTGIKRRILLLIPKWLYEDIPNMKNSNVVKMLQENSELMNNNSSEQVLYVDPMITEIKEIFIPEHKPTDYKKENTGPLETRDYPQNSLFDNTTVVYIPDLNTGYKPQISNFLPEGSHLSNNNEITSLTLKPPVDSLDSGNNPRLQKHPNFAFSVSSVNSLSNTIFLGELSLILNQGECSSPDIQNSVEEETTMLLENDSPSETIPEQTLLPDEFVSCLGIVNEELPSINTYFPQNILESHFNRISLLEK
Nature of the data set: DB cells IL23R pSTAT3 cell assay (pStat3 HTRF). The data set is classed as cell-based. A digest of the protocol: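 HTRF readout of lysate pSTAT3 (Tyr705) after two-plate processing. Peptide dilution series co-incubated with IL-23 (0.5 nM final) on 5×10E5 IL-23R-expressing DB cells per well, 30 min, 37 °C.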

A short description of data set [5]: in vitro. The note with it: cynomolgus monkey, 20% fecal homogenate (supernatant), anaerobic, pH 6.8.
The conditions of data set [6]: 20% cynomolgus monkey fecal homogenate, 37° C., 20 μM.
For data set [7] the following is noted: 20% human fecal homogenate, 37° C., 20 μM.
Description: as §1
Setting [8] is: Table E3, DB cells, IL-23 0.5 nM, 30 minutes at 37° C., read-out: pStat3 HTRF (IC50).

Data on seven molecules can be found in patent US20260116921A1, “PEPTIDE INHIBITORS OF INTERLEUKIN-23 RECEPTOR AND THEIR USE TO TREAT INFLAMMATORY DISEASES” (priority 2018, published 2026).

In general, IC50 refers to the point on the concentration scale where inhibition reaches its midpoint.

The structures appear in SMILES notation. Like-named read-outs stand apart in the source and are kept apart here. Numbered stars: 1 amine (or outer) side, 2 acyl side, 3 side chain; on linkers, the order of the positions; unused ones are H or OH. Bridge positions count the residues as written; N and C are the ends. Square brackets hold non-standard residues; d marks the D form. Peptide text beside a SMILES is read from it. Trp(7-Me) = Cc1cccc2c(C[C@H](N)C(=O)O)c[nH]c12; Abu(4-yl) = O=C([C@H](CC[*:3])N[*:1])[*:2]; 2Nal = N[C@@H](Cc1ccc2ccccc2c1)C(=O)O; AEF = NCCOc1ccc(C[C@H](N)C(=O)O)cc1; αMeK = C[C@](N)(CCCCN)C(=O)O

`CC(=O)NCCCC[C@H](NC(=O)[C@](C)(CC(C)C)NC(=O)[C@H](Cc1ccc2ccccc2c1)NC(=O)[C@H](Cc1ccc(OCCN)cc1)NC(=O)[C@H]1NC(=O)[C@H](CCC(N)=O)NC(=O)[C@H](Cc2c[nH]c3c(C)cccc23)NC(=O)[C@H]([C@@H](C)O)NC(=O)[C@H](CC(N)=O)NC(=O)[C@@H](NC(C)=O)C(C)(C)SSC1(C)C)C(=O)N[C@@H](CC(N)=O)C(=O)N[C@@H](CC(N)=O)C(N)=O` [compound 6]: the half-life at 20 μM in data set [1] was 12 h; in the data set “in vitro [2]”, less than 1 h; in “in vitro [3]”, 17 h; in the data set “in vitro [5]” it was 4 h. The figures for the half-inhibitory concentration (IC50) in the data set with NK cells and against IL-23R were less than 10 nM and less than 1 nM, respectively. The “SIF t½” value in the data set “in vitro [4]” (simulated intestinal fluid, pancreatin) is 24 h.
Turning to `CC(=O)NCCCC[C@H](NC(=O)C1(NC(=O)[C@H](Cc2ccc3ccccc3c2)NC(=O)[C@H](Cc2ccc(OCCN)cc2)NC(=O)[C@H]2NC(=O)[C@H](CCC(N)=O)NC(=O)[C@H](Cc3c[nH]c4c(C)cccc34)NC(=O)[C@H]([C@@H](C)O)NC(=O)[C@H](CC(N)=O)NC(=O)[C@@H](NC(C)=O)C(C)(C)SSC2(C)C)CCNCC1)C(=O)N[C@@H](CC(N)=O)C(=O)NCCC(N)=O` [compound 275], the “t½: Monkey Feces anaerobic” value in data set [6] is 8 h.
In the case of `CC(=O)NCCCC[C@@H]1NC(=O)[C@H](Cc2c[nH]c3c(C)cccc23)NC(=O)[C@H]([C@@H](C)O)NC(=O)[C@H](CCC(N)=O)NC(=O)[C@@H](NC(=O)[C@@H](CCCNC(=N)N)NC(C)=O)CCSC[C@@H](C(=O)N[C@@H](Cc2ccc(OCCN)cc2)C(=O)N[C@@H](Cc2ccc3ccccc3c2)C(=O)N[C@@](C)(CCCCN)C(=O)N[C@@H](CCCCNC(C)=O)C(=O)N[C@@H](CC(N)=O)C(=O)N[C@H](CC(C)C)C(N)=O)NC1=O` [compound 325] (Ac-[dR][Abu(4-yl)]QT[Trp(7-Me)]K(Ac)C[AEF][2Nal][αMeK]K(Ac)N[dL]-NH2; thioether 2-7), in data set [7], the “t½: Human Feces anaerobic” value was more than 24 h. In addition, in the data set “in vitro [4]” (simulated intestinal fluid (SIF) with pancreatin, read-out: SIF t½ (converted)), the half-life is 2 h. The “t½: Monkey Feces anaerobic” value in data set [6] was determined as 22 h.
Take `CC(=O)NCCCC[C@H](NC(=O)[C@](C)(CC(C)C)NC(=O)[C@H](Cc1ccc2ccccc2c1)NC(=O)[C@H](Cc1ccc(OCCN)cc1)NC(=O)[C@H]1NC(=O)[C@H](CCC(N)=O)NC(=O)[C@H](Cc2c[nH]c3c(C)cccc23)NC(=O)[C@H]([C@@H](C)O)NC(=O)[C@H](CC(N)=O)NC(=O)[C@@H](NC(C)=O)C(C)(C)SSC1(C)C)C(=O)N1CCC[C@H]1C(=O)NCCC(N)=O` [compound 211]: the “t½: Human Feces anaerobic” value in [7] was 10 h. In addition, the IC50 at IL-23R (setting [8]) was more than 100 nM. Moreover, in [6], the “t½: Monkey Feces anaerobic” value is more than 24 h.
Regarding `CC(=O)NCCCC[C@H](NC(=O)[C@](C)(CC(C)C)NC(=O)[C@H](Cc1ccc2ccccc2c1)NC(=O)[C@H](Cc1ccc(OCCN)cc1)NC(=O)[C@H]1NC(=O)[C@H](CCC(N)=O)NC(=O)[C@H](Cc2c[nH]c3c(C)cccc23)NC(=O)[C@H]([C@@H](C)O)NC(=O)[C@H](CC(N)=O)NC(=O)[C@@H](NC(C)=O)C(C)(C)SSC1(C)C)C(=O)N[C@@H](CO)C(=O)NCCC(N)=O` [compound 221], the half-life at 20 μM in data set [1] is 9 h; in “in vitro [2]”, 2 h; in the data set “in vitro [3]”, more than 24 h; in the data set “in vitro [5]”, more than 24 h. The figures for the half-maximal inhibitory concentration (IC50) with NK cells and on IL-23R (setting [8]) were less than 10 nM and 1 to 10 nM, respectively.
As for `CC(=O)NCCCC[C@H](NC(=O)[C@](C)(CCCCN)NC(=O)[C@H](Cc1ccc2ccccc2c1)NC(=O)[C@H](Cc1ccc(OCCN)cc1)NC(=O)[C@H]1NC(=O)[C@H](CCC(N)=O)NC(=O)[C@H](Cc2c[nH]c3c(C)cccc23)NC(=O)[C@H]([C@@H](C)O)NC(=O)[C@H](CC(N)=O)NC(=O)[C@@H](NC(C)=O)C(C)(C)SSC1(C)C)C(=O)N[C@@H](CC(N)=O)C(=O)NCCC(N)=O` [compound 267], the concentration for half-maximal inhibition (IC50) on IL-23R (setting [8]) is less than 1 nM. Further, the “t½: Monkey Feces anaerobic” value in data set [6] came to 4 h.
For `CC(=O)NCCCC[C@H](NC(=O)[C@](C)(CC(C)C)NC(=O)[C@H](Cc1ccc2ccccc2c1)NC(=O)[C@H](Cc1ccc(OCCN)cc1)NC(=O)[C@H]1NC(=O)[C@H](CCC(N)=O)NC(=O)[C@H](Cc2c[nH]c3c(C)cccc23)NC(=O)[C@H]([C@@H](C)O)NC(=O)[C@H](CC(N)=O)NC(=O)[C@@H](NC(C)=O)C(C)(C)SSC1(C)C)C(=O)N[C@@H](CC(N)=O)C(=O)NCCC(N)=O` [compound 201], the half-life at 20 μM in [1] was 14 h; in the data set “in vitro [2]” it was less than 0.3 h; in “in vitro [3]”, more than 24 h; in the data set “in vitro [5]” it was 19 h. Further, the IC50 in the data set on NK cells is less than 10 nM; at IL-23R (setting [8]), less than 1 nM.
